Test results from patent publication US12209087B2, “AKT1 modulators” (Alterome Therapeutics, Inc., priority 2022, dated 2025).

Target: T1, full length AKT E17K (Homo sapiens, UniProt P31749, E17K)
T1 construct: host or cells: HEK-293 (ATCC CRL-1573)
Experiment: NanoBRET Target Engagement (TE) Assay
Format: cell-based
Details: competitive tracer displacement in living cells, read-out: AKT1 E17K IC50
In short: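 Compound and tracer incubated 2 h before luminescence at donor 450 nm and acceptor 600 nm, with extracellular signal inhibited. EC50 by sigmoidal variable-slope regression.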

T1 sequence (P31749 whole entry E17K): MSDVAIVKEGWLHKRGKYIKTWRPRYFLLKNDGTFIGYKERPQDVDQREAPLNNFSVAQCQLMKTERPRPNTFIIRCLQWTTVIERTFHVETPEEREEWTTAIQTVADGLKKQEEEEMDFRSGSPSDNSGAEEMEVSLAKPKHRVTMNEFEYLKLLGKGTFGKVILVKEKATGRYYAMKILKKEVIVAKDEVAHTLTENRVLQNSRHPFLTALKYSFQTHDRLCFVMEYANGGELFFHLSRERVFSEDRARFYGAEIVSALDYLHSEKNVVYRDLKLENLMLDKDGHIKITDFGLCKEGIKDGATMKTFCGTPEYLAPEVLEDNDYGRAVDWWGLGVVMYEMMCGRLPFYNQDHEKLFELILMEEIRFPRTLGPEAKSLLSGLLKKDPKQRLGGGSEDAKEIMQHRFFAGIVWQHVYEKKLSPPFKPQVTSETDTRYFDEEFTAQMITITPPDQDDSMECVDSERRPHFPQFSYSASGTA

Row | IC50 [nM] | Structure (SMILES)
1 | 15 to 60 | N#Cc1nccc(N2CCCN(Cc3ccc(-n4c(-c5cccnc5N)nc5ccc(-c6ccccc6)nc54)cc3)CC2)n1 [Example 214, 4-(4-(4-(2-(2-Aminopyridin-3-yl)-5-phenyl-3H-imidazo[4,5-b]pyridin-3-yl)benzyl)-1,4-diazepan-1-yl)pyrimidine-2-carbonitrile]
2 | < 15 | N#Cc1cc(N2CCCN(Cc3ccc(-n4c(-c5cccnc5N)nc5ccc(-c6ccccc6)nc54)cc3)CC2)ncn1 [Example 215, 6-(4-(4-(2-(2-aminopyridin-3-yl)-5-phenyl-3H-imidazo[4,5-b]pyridin-3-yl)benzyl)-1,4-diazepan-1-yl)pyrimidine-4-carbonitrile]
3 | < 15 | N#Cc1nccc(N2C[C@H]3C[C@@H]2CN3Cc2ccc(-n3c(-c4cccnc4N)nc4ccc(-c5ccccc5)nc43)cc2)n1 [Example 216, 4-((1R,4R)-5-(4-(2-(2-Aminopyridin-3-yl)-5-phenyl-3H-imidazo[4,5-b]pyridin-3-yl)benzyl)-2,5-diazabicyclo[2.2.1]heptan-2-yl)pyrimidine-2-carbonitrile]
4 | 15 to 60 | N#Cc1ccnc(N2C[C@H]3C[C@@H]2CN3Cc2ccc(-n3c(-c4cccnc4N)nc4ccc(-c5ccccc5)nc43)cc2)n1 [Example 217, 2-((1R,4R)-5-(4-(2-(2-Aminopyridin-3-yl)-5-phenyl-3H-imidazo[4,5-b]pyridin-3-yl)benzyl)-2,5-diazabicyclo[2.2.1]heptan-2-yl)pyrimidine-4-carbonitrile]
5 | 15 to 60 | N#Cc1cc(N2C[C@H]3C[C@@H]2CN3Cc2ccc(-n3c(-c4cccnc4N)nc4ccc(-c5ccccc5)nc43)cc2)ncn1 [Example 218, 6-((1R,4R)-5-(4-(2-(2-Aminopyridin-3-yl)-5-phenyl-3H-imidazo[4,5-b]pyridin-3-yl)benzyl)-2,5-diazabicyclo[2.2.1]heptan-2-yl)pyrimidine-4-carbonitrile]
6 | < 15 | N#Cc1nccc(N2CC3CCC2CN3Cc2ccc(-n3c(-c4cccnc4N)nc4ccc(-c5ccccc5)nc43)cc2)n1 (stereo not drawn) [Example 219, 4-(5-(4-(2-(2-Aminopyridin-3-yl)-5-phenyl-3H-imidazo[4,5-b]pyridin-3-yl)benzyl)-2,5-diazabicyclo[2.2.2]octan-2-yl)pyrimidine-2-carbonitrile]
7 | 60 to 600 | N#Cc1ccnc(N2CC3CCC2CN3Cc2ccc(-n3c(-c4cccnc4N)nc4ccc(-c5ccccc5)nc43)cc2)n1 (stereo not drawn) [Example 220, 2-(5-(4-(2-(2-Aminopyridin-3-yl)-5-phenyl-3H-imidazo[4,5-b]pyridin-3-yl)benzyl)-2,5-diazabicyclo[2.2.2]octan-2-yl)pyrimidine-4-carbonitrile]
8 | 60 to 600 | N#Cc1cc(N2CC3CCC2CN3Cc2ccc(-n3c(-c4cccnc4N)nc4ccc(-c5ccccc5)nc43)cc2)ncn1 (stereo not drawn) [Example 221, 6-(5-(4-(2-(2-Aminopyridin-3-yl)-5-phenyl-3H-imidazo[4,5-b]pyridin-3-yl)benzyl)-2,5-diazabicyclo[2.2.2]octan-2-yl)pyrimidine-4-carbonitrile]
9 | < 15 | [2H]C([2H])(c1ccc(-n2c(-c3cccnc3N)nc3ccc(-c4ccccc4)nc32)cc1)N1CCC(Nc2ccnc(C#N)n2)CC1 [Example 222, 4-((1-((4-(2-(2-Aminopyridin-3-yl)-5-phenyl-3H-imidazo[4,5-h]pyridin-3-yl)phenyl)methyl-d2)piperidin-4-yl)amino)pyrimidine-2-carbonitrile]
10 | 15 to 60 | CN(c1ncnc(C#N)n1)C1CCN(Cc2ccc(-n3c(-c4cccnc4N)nc4ccc(-c5ccccc5)nc43)cc2)CC1 [Example 223, 4-((1-(4-(2-(2-aminopyridin-3-yl)-5-phenyl-3H-imidazo[4,5-b]pyridin-3-yl)benzyl)piperidin-4-yl)(methyl)amino)-1,3,5-triazine-2-carbonitrile]
11 | < 15 | N#Cc1ncnc(N[C@H]2CCCN(Cc3ccc(-n4c(-c5cccnc5N)nc5ccc(-c6ccccc6)nc54)cc3)C2)n1 [Example 224, (S)-4-((1-(4-(2-(2-Aminopyridin-3-yl)-5-phenyl-3H-imidazo[4,5-b]pyridin-3-yl)benzyl)piperidin-3-yl)amino)-1,3,5-triazine-2-carbonitrile]
12 | 60 to 600 | C[C@@H]1CN(Cc2ccc(-n3c(-c4cccnc4N)nc4ccc(-c5ccccc5)nc43)cc2)CCN1c1ccnc(C#N)n1 [Example 225, (R)-4-(4-(4-(2-(2-aminopyridin-3-yl)-5-phenyl-3H-imidazo[4,5-b]pyridin-3-yl)benzyl)-2-methylpiperazin-1-yl)pyrimidine-2-carbonitrile]
13 | 60 to 600 | C[C@@H]1CN(Cc2ccc(-n3c(-c4cccnc4N)nc4ccc(-c5ccccc5)nc43)cc2)CCN1c1nccc(C#N)n1 [Example 226, (R)-2-(4-(4-(2-(2-Aminopyridin-3-yl)-5-phenyl-3H-imidazo[4,5-b]pyridin-3-yl)benzyl)-2-methylpiperazin-1-yl)pyrimidine-4-carbonitrile]
14 | 60 to 600 | C[C@@H]1CN(Cc2ccc(-n3c(-c4cccnc4N)nc4ccc(-c5ccccc5)nc43)cc2)CCN1c1cc(C#N)ncn1 [Example 227, (R)-6-(4-(4-(2-(2-Aminopyridin-3-yl)-5-phenyl-3H-imidazo[4,5-b]pyridin-3-yl)benzyl)-2-methylpiperazin-1-yl)pyrimidine-4-carbonitrile]
15 | 15 to 60 | N#Cc1ccnc(N2CCCN(Cc3ccc(-n4c(-c5cccnc5N)nc5ccc(-c6ccccc6)nc54)cc3)CC2)n1 [Example 228, 2-(4-(4-(2-(2-Aminopyridin-3-yl)-5-phenyl-3H-imidazo[4,5-b]pyridin-3-yl)benzyl)-1,4-diazepan-1-yl)pyrimidine-4-carbonitrile]
16 | 15 to 60 | N#Cc1nccc(C(=O)NC2C3CCC2CN(Cc2ccc(-n4c(-c5cccnc5N)nc5ccc(-c6ccccc6)nc54)cc2)C3)n1 (stereo not drawn) [Example 229, N-(3-(4-(2-(2-aminopyridin-3-yl)-5-phenyl-3H-imidazo[4,5-b]pyridin-3-yl)benzyl)-3-azabicyclo[3.2.1]octan-8-yl)-2-cyanopyrimidine-4-carboxamide]
17 | 60 to 600 | N#Cc1cc(C(=O)NC2C3CCC2CN(Cc2ccc(-n4c(-c5cccnc5N)nc5ccc(-c6ccccc6)nc54)cc2)C3)ncn1 (stereo not drawn) [Example 230, N-(3-(4-(2-(2-aminopyridin-3-yl)-5-phenyl-3H-imidazo[4,5-b]pyridin-3-yl)benzyl)-3-azabicyclo[3.2.1]octan-8-yl)-6-cyanopyrimidine-4-carboxamide]
18 | 600 to 10000 | N#Cc1ccnc(NC2C3CCC2CN(Cc2ccc(-n4c(-c5cccnc5N)nc5ccc(-c6ccccc6)nc54)cc2)C3)n1 (stereo not drawn) [Example 231, 2-((3-(4-(2-(2-Aminopyridin-3-yl)-5-phenyl-3H-imidazo[4,5-b]pyridin-3-yl)benzyl)-3-azabicyclo[3.2.1]octan-8-yl)amino)pyrimidine-4-carbonitrile]
19 | < 15 | [2H]C([2H])([2H])N(c1ccnc(C#N)n1)C1CCN(Cc2ccc(-n3c(-c4cccnc4N)nc4ccc(-c5ccccc5)nc43)cc2)CC1 [Example 232, 4-((1-(4-(2-(2-Aminopyridin-3-yl)-5-phenyl-3H-imidazo[4,5-b]pyridin-3-yl)benzyl)piperidin-4-yl)(methyl-d3)amino)pyrimidine-2-carbonitrile]
20 | 15 to 60 | [2H]C([2H])([2H])N(c1ncnc(C#N)n1)C1CCN(Cc2ccc(-n3c(-c4cccnc4N)nc4ccc(-c5ccccc5)nc43)cc2)CC1 [Example 233, 4-((1-(4-(2-(2-Aminopyridin-3-yl)-5-phenyl-3H-imidazo[4,5-b]pyridin-3-yl)benzyl)piperidin-4-yl)(methyl-d3)amino)-1,3,5-triazine-2-carbonitrile]
21 | < 15 | [2H]C([2H])([2H])N(C(=O)c1ccnc(C#N)n1)C1CCN(Cc2ccc(-n3c(-c4cccnc4N)nc4ccc(-c5ccccc5)nc43)cc2)CC1 [Example 234, N-(1-(4-(2-(2-aminopyridin-3-yl)-5-phenyl-3H-imidazo[4,5-b]pyridin-3-yl)benzyl)piperidin-4-yl)-2-cyano-N-(methyl-d3)pyrimidine-4-carboxamide]
22 | 60 to 600 | N#Cc1nccc(N2CCN(Cc3ccc(-n4c(-c5cccnc5N)nc5ccc(N6CCOCC6)nc54)cc3)CC2)n1 [Example 235, 4-(4-(4-(2-(2-Aminopyridin-3-yl)-5-morpholino-3H-imidazo[4,5-b]pyridin-3-yl)benzyl)piperazin-1-yl)pyrimidine-2-carbonitrile]
23 | 15 to 60 | N#Cc1ccnc(N2CCN(Cc3ccc(-n4c(-c5cccnc5N)nc5ccc(N6CCOCC6)nc54)cc3)CC2)n1 [Example 236, 2-(4-(4-(2-(2-Aminopyridin-3-yl)-5-morpholino-3H-imidazo[4,5-b]pyridin-3-yl)benzyl)piperazin-1-yl)pyrimidine-4-carbonitrile]
24 | 15 to 60 | N#Cc1cc(N2CCN(Cc3ccc(-n4c(-c5cccnc5N)nc5ccc(N6CCOCC6)nc54)cc3)CC2)ncn1 [Example 237, 6-(4-(4-(2-(2-Aminopyridin-3-yl)-5-morpholino-3H-imidazo[4,5-b]pyridin-3-yl)benzyl)piperazin-1-yl)pyrimidine-4-carbonitrile]

Row | Structure (SMILES) | IC50 [nM]
25 | N#Cc1nccc(N2CC3CCC(C2)N3Cc2ccc(-n3c(-c4cccnc4N)nc4ccc(-c5ccccc5)nc43)cc2)n1 [Example 211, 4-(8-(4-(2-(2-Aminopyridin-3-yl)-5-phenyl-3H-imidazo[4,5-b]pyridin-3-yl)benzyl)-3,8-diazabicyclo[3.2.1]octan-3-yl)pyrimidine-2-carbonitrile] | < 15
26 | N#Cc1ccnc(N2CC3CCC(C2)N3Cc2ccc(-n3c(-c4cccnc4N)nc4ccc(-c5ccccc5)nc43)cc2)n1 [Example 212, 2-(8-(4-(2-(2-Aminopyridin-3-yl)-5-phenyl-3H-imidazo[4,5-b]pyridin-3-yl)benzyl)-3,8-diazabicyclo[3.2.1]octan-3-yl)pyrimidine-4-carbonitrile] | 60 to 600
27 | N#Cc1cc(N2CC3CCC(C2)N3Cc2ccc(-n3c(-c4cccnc4N)nc4ccc(-c5ccccc5)nc43)cc2)ncn1 [Example 213, 6-(8-(4-(2-(2-Aminopyridin-3-yl)-5-phenyl-3H-imidazo[4,5-b]pyridin-3-yl)benzyl)-3,8-diazabicyclo[3.2.1]octan-3-yl)pyrimidine-4-carbonitrile] | 15 to 60
